The results in this text go back to patent US20180153868A1, “TREATMENT OF BREAST CANCER BY CONCOMITANT ADMINISTRATION OF A BROMODOMAIN INHIBITOR AND A SECOND AGENT” (Gilead Sciences, Inc., priority 2016, published 2018).

SMILES strings stand for the structures. Where two headings read alike, the source gives them in different places.

Type in all cases: cell-based
Assay [1] deals with MCF7. As to the kind of experiment: Cell viability assay (Cell Titer-Glo), MCF7. Conditions: for EC50: Homo sapiens, 72 hours. The method, then:
(§1) The cell viability was determined using the Cell Titer-Glo luminescent cell viability assay, according to the manufacturer's instructions. Luminescence was measured using a PHERAstar FS microplate reader (BMG LABTECH, German). The half-maximal inhibitory concentration (IC50) values were calculated using the prism plot software. The effects of treatments were measured by conducting three independent experiments.
(In general: ATP-based viability assays read luminescence as a measure of living cells.)

Assay [2] concerns T47D. Kind of assay: Cell viability assay (Cell Titer-Glo), T47D. The note with it: for EC50: Homo sapiens, 96 hours. As for the experimental part:
as §1

Assay [3] relates to MCF7. Kind of assay: Colony formation / survival assay, MCF7. Conditions: 7 days. The method, then: (§2) Colony Formation or Survival Asasys: Cells were seeded in 12-well plates in triplicates at a density of 600 cells per well for MCF7 and 800 cells per well for T47D cells. Cells were treated after overnight incubated. Medium was changed every 3-4 days until cluster of colonies were formed. The plates were incubated for 7 days for MCF7 cells and xx days for T47D cells. Colonies in the plate were fixed and stained with Formaldehyde (1.0% v/v), Methanol (1%) and crystal violet (1% w/v) for xx min; thoroughly washed with water and air dry and counted using with automated colony counter (Gel counter. OXFORD OPTRONIC Inc). Results are present as average colony count ±SD.
(§3) Impact on cell growth can also be evaluated in colony survival assays. To evaluate the effect of compound (I-1) on colony survival, MCF7 and T47D were plated at low density and treated with several doses of compound (I-1) alone and in combination with fulvestrant. The number of colonies formed after 7 days in culture was evaluated (FIG. 9). […] In the presence of fulvestrant, colony number was reduced 73%, and 20 nM compound (I-1) further reduced colony number by 92%. […] In the presence of fulvestrant, colony number was reduced 41%.

Assay [4] has as its system T47D. Kind of assay: Colony formation / survival assay, T47D. The method, then:
as §2, §3

For a further assay, the system named is ER. As to the kind of experiment: ER protein expression in MCF7 and T47D (FIG. 1). The note with it: 24 hours. An excerpt: (§4) ER, when bound by estrogen or […] such as fulvestrant, undergoes a conformational change that promotes ubiquitination and degradation of the receptor.
Assay [5] deals with ER targets GREB1, MYC, and PGR. As to the kind of experiment: Protein expression of ER targets in MCF7 and T47D (FIG. 1). The note with it: 24 hours.
Description: as §4

Where [6] appears, read: compound (I-1) alone, read-out: average EC50, cell viability.
[7] abbreviates: in the presence of fulvestrant, read-out: EC50, cell viability.
[8] abbreviates: 20 nM compound (I-1) in the presence of fulvestrant.
Where [9] appears, read: single agent fulvestrant treatment.

As to `Cc1noc(C)c1-c1cc(C(O)(c2ccccn2)c2ccccn2)c2nc(C3CC3)[nH]c2c1` [compound (I-1), (2-cyclopropyl-6-(3,5-dimethylisoxazol-4-yl)-1H-benzo[d]imidazol-4-yl)di(pyridin-2-yl)methanol], the EC50 (commonly the concentration at which the effect is half-maximal) in the assay with MCF7 [1] (setting [6]) stood at 61.3 ± 8.4 nM; in the assay on MCF7 [1] (setting [7]) it was 25 ± 10.6 nM; with T47D [2] (setting [6]), 95.3 ± 16.5 nM; in the assay with T47D [2] (setting [7]), 64 ± 5 nM. Besides, the “increase in potency (EC50 alone vs in combination with fulvestrant)” value in the assay on MCF7 [1] (p value 0.00027) came out at 2.5 fold; with T47D [2] (p value 0.0030), 1.5 fold. In addition, the values for the reduced colony number in the assay on MCF7 [3] (20 nM compound (I-1) alone), with T47D [4] (60 nM compound (I-1) alone) and in the assay on T47D [4] (120 nM compound (I-1) alone) were 48%, 53% and 60%, respectively. Further, the “further reduced colony number” value worked out at 92% in the assay on MCF7 [3] (setting [8]), 66% in the assay on T47D [4] (60 nM compound (I-1) in the presence of fulvestrant) and 78% with T47D [4] (120 nM compound (I-1) in the presence of fulvestrant). Also, the effect on colonies result with MCF7 [3] (60 nM compound (I-1) alone) and in the assay with MCF7 [3] (120 nM compound (I-1) alone) was “nearly all colonies eliminated” in each case. Moreover, the “effect on colony number” value in the assay with T47D [4] (20 nM compound (I-1) alone) and in the assay on T47D [4] (setting [8]) was “no significant effect” each time. Also, the ER protein expression entry with ER (100 or 50 nM compound (I-1) added under estrogen or fulvestrant treatments) was “further reduced ER protein expression”. Further, in assay [5] (addition of 50 or 100 nM compound (I-1)), the “ER target (GREB1, MYC, PGR) expression” value is “consistently reduced target expression”. The “ER target (GREB1, MYC, PGR) protein reduction” value in assay [5] (combination of fulvestrant and compound (I-1)) was “most pronounced protein reduction”.

As for `C[C@]12CC[C@@H]3c4ccc(O)cc4C[C@@H](CCCCCCCCC[S+]([O-])CCCC(F)(F)C(F)(F)F)[C@H]3[C@@H]1CC[C@@H]2O` (stereo partly shown) [fulvestrant, reference compound], the results for the “reduced growth (average)” value with MCF7 [1] (setting [9]) and with T47D [2] (setting [9]) were 47.0±19.6% and 35.8±5.0%, respectively. For the same compound, the colony number reduced in the assay with MCF7 [3] (fulvestrant alone) was 73%; in the assay with T47D [4] (fulvestrant alone), 41%. The ER protein levels entry in the assay with ER (12 nM Fulvestrant) is “reduced ER protein levels”. Further, the “estrogen induction of GREB1, MYC, PGR protein expression” value in assay [5] (in the presence of fulvestrant (12 nM)) is “significantly reduced”.
